Each compound was assayed against baculovirus-expressed ALK (Homo sapiens, UniProt Q9UM73) (assay: ALK Kinase Assay (ELISA/TRF, PLC-γ substrate)). Conditions: read-out: ALK Kinase Inhibition (IC50).
Assay type: biochemical
Experimental: Example compounds were tested for their ability to inhibit the kinase activity of baculovirus-expressed ALK using a modification of the ELISA protocol reported for trkA in Angeles, T. S. et al., Anal. Biochem. 1996, 236, 49-55, which is incorporated herein by reference in its entirety. Phosphorylation of the substrate, phospholipase C-gamma (PLC-γ) generated as a fusion protein with glutathione S-transferase (GST) as reported in Rotin, D. et al., EMBO J. 1992, 11, 559-567, which is incorporated herein by reference in its entirety, was detected with a europium-labeled anti-phosphotyrosine antibody and measured by time-resolved fluorescence (TRF). Briefly, each 96-well plate was coated with 100 μL/well of 10 μg/mL substrate (phospholipase C-γ) in Tris-buffered saline (TBS). […] The reaction was initiated by adding enzyme (30 ng/ml ALK) and was allowed to proceed at 37° C. for 15 minutes. Detection of the phosphorylated product was performed by adding 100 μl/well of Eu-N1 labeled PT66 antibody (Perkin Elmer # AD0041). Incubation at 37° C. then proceeded for one (1) hour, followed by addition of 100 μL enhancement solution (Wallac #1244-105). The plate was gently agitated and after thirty minutes, the fluorescence of the resulting solution was measured using the EnVision 2100 (or 2102) multilabel plate reader (Perkin Elmer).
Data analysis was performed using ActivityBase (IDBS, Guilford, UK). IC50 values were calculated by plotting percent inhibition versus log10 of the concentration of compound and fitting to the nonlinear regression sigmoidal dose-response (variable slope) equation in XLFit (IDBS, Guilford, UK).
Also: 1 µM ATP (Km level).

baculovirus-expressed ALK, sequence (Q9UM73 19-1620): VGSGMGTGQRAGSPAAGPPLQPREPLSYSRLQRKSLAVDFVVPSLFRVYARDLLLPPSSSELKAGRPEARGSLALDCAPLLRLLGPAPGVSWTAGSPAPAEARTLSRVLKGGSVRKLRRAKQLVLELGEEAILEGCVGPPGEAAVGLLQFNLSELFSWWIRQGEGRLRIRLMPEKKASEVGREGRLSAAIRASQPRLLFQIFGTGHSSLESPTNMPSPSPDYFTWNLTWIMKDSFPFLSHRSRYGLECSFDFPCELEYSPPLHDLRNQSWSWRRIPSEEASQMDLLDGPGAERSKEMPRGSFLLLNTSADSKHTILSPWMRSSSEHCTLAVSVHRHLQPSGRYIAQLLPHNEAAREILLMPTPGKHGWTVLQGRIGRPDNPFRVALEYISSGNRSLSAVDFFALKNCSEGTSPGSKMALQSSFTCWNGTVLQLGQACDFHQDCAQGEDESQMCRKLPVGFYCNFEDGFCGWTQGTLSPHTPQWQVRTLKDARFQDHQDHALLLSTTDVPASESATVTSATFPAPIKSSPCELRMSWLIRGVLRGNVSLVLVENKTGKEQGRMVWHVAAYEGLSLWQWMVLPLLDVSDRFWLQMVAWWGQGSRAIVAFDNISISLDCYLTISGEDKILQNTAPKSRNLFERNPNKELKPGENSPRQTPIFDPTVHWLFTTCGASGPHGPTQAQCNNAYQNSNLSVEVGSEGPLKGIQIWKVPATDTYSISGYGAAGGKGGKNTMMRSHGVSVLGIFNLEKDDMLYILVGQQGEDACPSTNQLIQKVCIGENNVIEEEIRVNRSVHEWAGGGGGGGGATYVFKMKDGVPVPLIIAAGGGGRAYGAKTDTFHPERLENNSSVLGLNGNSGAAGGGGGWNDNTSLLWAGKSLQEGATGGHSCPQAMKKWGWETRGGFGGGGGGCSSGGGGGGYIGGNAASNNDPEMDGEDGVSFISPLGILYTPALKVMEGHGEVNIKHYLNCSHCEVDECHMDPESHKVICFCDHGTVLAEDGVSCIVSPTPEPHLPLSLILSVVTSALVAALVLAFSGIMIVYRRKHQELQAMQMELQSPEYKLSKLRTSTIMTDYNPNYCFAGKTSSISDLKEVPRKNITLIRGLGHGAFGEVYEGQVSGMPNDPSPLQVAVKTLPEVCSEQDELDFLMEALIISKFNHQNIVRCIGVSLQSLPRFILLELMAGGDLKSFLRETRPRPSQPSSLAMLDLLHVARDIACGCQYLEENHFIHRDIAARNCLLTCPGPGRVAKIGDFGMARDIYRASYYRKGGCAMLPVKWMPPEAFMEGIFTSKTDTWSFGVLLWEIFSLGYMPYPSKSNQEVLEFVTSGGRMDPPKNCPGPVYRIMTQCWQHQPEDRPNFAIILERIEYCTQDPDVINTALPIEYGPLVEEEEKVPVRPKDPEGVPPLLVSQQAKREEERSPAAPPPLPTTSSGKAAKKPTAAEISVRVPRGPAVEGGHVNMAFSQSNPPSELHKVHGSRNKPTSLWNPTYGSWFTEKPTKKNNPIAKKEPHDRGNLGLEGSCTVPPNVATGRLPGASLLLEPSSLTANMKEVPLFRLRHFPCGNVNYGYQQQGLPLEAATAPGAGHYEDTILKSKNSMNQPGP

IC50 [nM] | Compound
100 to 1000 | O=C(c1cccc(-c2cnc3c(c2)N(Cc2cc(Cl)ccc2C(F)(F)F)CCN3)c1)N1CCN(CCc2ccccn2)CC1 [Example 330, (3-{1-[5-Chloro-2-(trifluoromethyl)benzyl]-1,2,3,4-tetrahydropyrido[2,3-b]pyrazin-7-yl}phenyl)-[4-(2-pyridin-2-yl-ethyl)piperazin-1-yl]methanone]
100 to 1000 | O=C(NCc1ccc(C(F)(F)F)cc1)c1ccc(-c2cnc3c(c2)N(Cc2cc(Cl)ccc2C(F)(F)F)CCN3)cc1 [Example 396, 4-{1-[5-Chloro-2-(trifluoromethyl)benzyl]-1,2,3,4-tetrahydropyrido[2,3-b]pyrazin-7-yl}-N-[4-(trifluoromethyl)benzyl]benzamide]
100 to 1000 | O=C(NC(c1ccccc1)c1ccccc1)c1cccc(-c2cnc3c(c2)N(Cc2cc(Cl)ccc2C(F)(F)F)CCN3)c1 [Example 333, N-Benzhydryl-3-{1-[5-chloro-2-(trifluoromethyl)benzyl]-1,2,3,4-tetrahydropyrido[2,3-b]pyrazin-7-yl}benzamide]
100 to 1000 | O=C(c1cccc(-c2cnc3c(c2)N(Cc2cc(Cl)ccc2C(F)(F)F)CCN3)c1)N1CCN(c2cccc(C(F)(F)F)c2)CC1 [Example 312, (3-{1-[5-Chloro-2-(trifluoromethyl)benzyl]-1,2,3,4-tetrahydropyrido[2,3-b]pyrazin-7-yl}phenyl)-{4-[3-(trifluoromethyl)phenyl]piperazin-1-yl}methanone]
100 to 1000 | O=C(c1cccc(-c2cnc3c(c2)N(Cc2cc(Cl)ccc2C(F)(F)F)CCN3)c1)N1CCC(c2noc3cc(F)ccc23)CC1 [Example 325, (3-{1-[5-Chloro-2-(trifluoromethyl)benzyl]-1,2,3,4-tetrahydropyrido[2,3-b]pyrazin-7-yl}phenyl)-[4-(6-fluorobenzo[d]isoxazol-3-yl)piperidin-1-yl]methanone]
100 to 1000 | O=C(NCCOc1ccccc1)c1cccc(-c2cnc3c(c2)N(Cc2cc(Cl)ccc2C(F)(F)F)CCN3)c1 [Example 355, 3-{1-[5-Chloro-2-(trifluoromethyl)benzyl]-1,2,3,4-tetrahydropyrido[2,3-b]pyrazin-7-yl}-N-(2-phenoxyethyl)benzamide]
100 to 1000 | O=C(NCCOc1ccccc1)c1ccc(-c2cnc3c(c2)N(Cc2cc(Cl)ccc2C(F)(F)F)CCN3)cc1 [Example 420, 4-{1-[5-Chloro-2-(trifluoromethyl)benzyl]-1,2,3,4-tetrahydropyrido[2,3-b]pyrazin-7-yl}-N-(2-phenoxyethyl)benzamide]
100 to 1000 | O=C(c1ccccc1)N1CCN(C(=O)c2cccc(-c3cnc4c(c3)N(Cc3cc(Cl)ccc3C(F)(F)F)CCN4)c2)CC1 [Example 323, (4-Benzoylpiperazin-1-yl)-(3-{1-[5-Chloro-2-(trifluoromethyl)benzyl]-1,2,3,4-tetrahydropyrido[2,3-b]pyrazin-7-yl}phenyl)methanone]
100 to 1000 | O=C(NCc1cccc(Cl)c1)c1ccc(-c2cnc3c(c2)N(Cc2cc(Cl)ccc2C(F)(F)F)CCN3)cc1 [Example 414, N-(3-Chloro-benzyl)-4-{1-[5-chloro-2-(trifluoromethyl)benzyl]-1,2,3,4-tetrahydropyrido[2,3-b]pyrazin-7-yl}benzamide]
< 100 | CN1CCC(NC(=O)c2cccc(-c3cnc4c(c3)N(Cc3cc(Cl)ccc3C(F)(F)F)CCN4)c2)CC1 [Example 329, 3-{1-[5-Chloro-2-(trifluoromethyl)benzyl]-1,2,3,4-tetrahydropyrido[2,3-b]pyrazin-7-yl}-N-(1-methylpiperidin-4-yl)benzamide]
< 100 | O=C(NC1CCN(Cc2ccccc2)C1)c1cccc(-c2cnc3c(c2)N(Cc2cc(Cl)ccc2C(F)(F)F)CCN3)c1 (stereo not shown) [Example 361, N-(1-Benzylpyrrolidin-3-yl)-3-{1-[5-chloro-2-(trifluoromethyl)benzyl]-1,2,3,4-tetrahydropyrido[2,3-b]pyrazin-7-yl}benzamide]
100 to 1000 | O=C(NCC(c1ccccc1)c1ccccc1)c1cccc(-c2cnc3c(c2)N(Cc2cc(Cl)ccc2C(F)(F)F)CCN3)c1 [Example 328, 3-{1-[5-Chloro-2-(trifluoromethyl)benzyl]-1,2,3,4-tetrahydropyrido[2,3-b]pyrazin-7-yl}-N-(2,2-diphenylethyl)benzamide]
100 to 1000 | COc1ccc(CN2CCN(C(=O)c3ccc(-c4cnc5c(c4)N(Cc4cc(Cl)ccc4C(F)(F)F)CCN5)cc3)CC2)cc1 [Example 384, (4-{1-[5-Chloro-2-(trifluoromethyl)benzyl]-1,2,3,4-tetrahydropyrido[2,3-b]pyrazin-7-yl}phenyl)-[4-(4-methoxybenzyl)piperazin-1-yl]methanone]
100 to 1000 | O=C(NCc1ccc(OC(F)(F)F)cc1)c1ccc(-c2cnc3c(c2)N(Cc2cc(Cl)ccc2C(F)(F)F)CCN3)cc1 [Example 395, 4-{1-[5-Chloro-2-(trifluoromethyl)benzyl]-1,2,3,4-tetrahydropyrido[2,3-b]pyrazin-7-yl}-N-[4-(trifluoromethoxy)benzyl]benzamide]
100 to 1000 | O=C(c1ccc(-c2cnc3c(c2)N(Cc2cc(Cl)ccc2C(F)(F)F)CCN3)cc1)N1CCC2(CC1)OCc1ccccc12 [Example 434, {4-[1-(5-Chloro-2-trifluoromethyl-benzyl)-1,2,3,4-tetrahydropyrido[2,3-b]pyrazin-7-yl]-phenyl}-(spiro[isobenzofuran-1(3H), 4′-piperidine]-1-yl)methanone]
100 to 1000 | COc1ccc(CNC(=O)c2ccc(-c3cnc4c(c3)N(Cc3cc(Cl)ccc3C(F)(F)F)CCN4)cc2)cc1 [Example 419, 4-{1-[5-Chloro-2-(trifluoromethyl)benzyl]-1,2,3,4-tetrahydropyrido[2,3-b]pyrazin-7-yl}-N-(4-methoxybenzyl)benzamide]
100 to 1000 | O=C(c1ccc(-c2cnc3c(c2)N(Cc2cc(Cl)ccc2C(F)(F)F)CCN3)cc1)N1CCN(c2ccc(Cl)c(Cl)c2)CC1 [Example 379, (4-{1-[5-Chloro-2-(trifluoromethyl)benzyl]-1,2,3,4-tetrahydropyrido[2,3-b]pyrazin-7-yl}phenyl)-[4-(3,4-dichlorophenyl)piperazin-1-yl]methanone]
100 to 1000 | O=C(NCc1ccccc1Cl)c1ccc(-c2cnc3c(c2)N(Cc2cc(Cl)ccc2C(F)(F)F)CCN3)cc1 [Example 412, N-(2-Chlorobenzyl)-4-{1-[5-chloro-2-(trifluoromethyl)benzyl]-1,2,3,4-tetrahydropyrido[2,3-b]pyrazin-7-yl}benzamide]
100 to 1000 | O=C(c1cccc(-c2cnc3c(c2)N(Cc2cc(Cl)ccc2C(F)(F)F)CCN3)c1)N1CCN(c2ccccc2C(F)(F)F)CC1 [Example 319, (3-{1-[5-Chloro-2-(trifluoromethyl)benzyl]-1,2,3,4-tetrahydropyrido[2,3-b]pyrazin-7-yl}phenyl)-{4-[2-(trifluoromethyl)phenyl]piperazin-1-yl}methanone]
100 to 1000 | O=C(c1cccc(-c2cnc3c(c2)N(Cc2cc(Cl)ccc2C(F)(F)F)CCN3)c1)N1CCN(c2ccc(Cl)cc2)CC1 [Example 308, [4-(4-Chlorophenyl)-piperazin-1-yl]-(3-{1-[5-Chloro-2-(trifluoromethyl)benzyl]-1,2,3,4-tetrahydropyrido[2,3-b]pyrazin-7-yl}phenyl)methanone]
100 to 1000 | O=C(c1ccc(-c2cnc3c(c2)N(Cc2cc(Cl)ccc2C(F)(F)F)CCN3)cc1)N1CCN(c2ccc(Cl)cc2)CC1 [Example 370, [4-(4-Chlorophenyl)piperazin-1-yl]-(4-{1-[5-chloro-2-(trifluoromethyl)benzyl]-1,2,3,4-tetrahydropyrido[2,3-b]pyrazin-7-yl}phenyl)methanone]
100 to 1000 | O=C(c1ccc(-c2cnc3c(c2)N(Cc2cc(Cl)ccc2C(F)(F)F)CCN3)cc1)N1CCN(CCc2ccccc2)CC1 [Example 424, (4-{1-[5-Chloro-2-(trifluoromethyl)benzyl]-1,2,3,4-tetrahydropyrido[2,3-b]pyrazin-7-yl}phenyl)-(4-phenethylpiperazin-1-yl)methanone]
100 to 1000 | COc1ccccc1N1CCN(C(=O)c2ccc(-c3cnc4c(c3)N(Cc3cc(Cl)ccc3C(F)(F)F)CCN4)cc2)CC1 [Example 373, (4-{1-[5-Chloro-2-(trifluoromethyl)benzyl]-1,2,3,4-tetrahydropyrido[2,3-b]pyrazin-7-yl}phenyl)-[4-(2-methoxyphenyl)piperazin-1-yl]methanone]
100 to 1000 | O=C(c1ccc(-c2cnc3c(c2)N(Cc2cc(Cl)ccc2C(F)(F)F)CCN3)cc1)N1CCN(c2cccc(Cl)c2)CC1 [Example 422, [4-(3-Chlorophenyl)piperazin-1-yl]-(4-{1-[5-chloro-2-(trifluoromethyl)benzyl]-1,2,3,4-tetrahydropyrido[2,3-b]pyrazin-7-yl}phenyl)methanone]
100 to 1000 | COc1cccc(CNC(=O)c2ccc(-c3cnc4c(c3)N(Cc3cc(Cl)ccc3C(F)(F)F)CCN4)cc2)c1 [Example 418, 4-{1-[5-Chloro-2-(trifluoromethyl)benzyl]-1,2,3,4-tetrahydropyrido[2,3-b]pyrazin-7-yl}-N-(3-methoxybenzyl)benzamide]

Reference: patent US7601716B2, “Pyridopyrazines and derivatives thereof as ALK and c-Met inhibitors” (Cephalon, Inc., priority 2006, dated 2009)
